# Data: patent US20170079966A1, “INHIBITION OF TUMOR CELL INTERACTIONS WITH THE MICROENVIRONMENT RESULTING IN A REDUCTION IN TUMOR GROWTH AND DISEASE PROGRESSION” (Deciphera Pharmaceuticals, LLC, priority 2014, published 2017)
# Where two headings read alike, the source gives them in different places.
# Columns and labels:
# [1] = test system: macrophage-mediated intravasation of human breast cancer cells (MDA-MB 231-GFP); experiment: In vitro intravasation-directed transendothelial migration (iTEM) assay; format: cell-based; settings: BAC1.2F5 macrophages, HUVEC monolayer
# Experimental: In vitro intravasation-directed transendothelial migration (iTEM) assay protocol. The iTEM assay was performed in a Transwell two-chamber apparatus. The Transwell was prepared so that tumor cell transendothelial migration of tumor cells was in the intravasation direction (from subluminal side to luminal side of the endothelium). We define this as the iTEM assay. To prepare the endothelial monolayer, the underside of each Transwell was coated with 50 μl of Matrigel (2.5 μg/ml; Invitrogen). About 100,000 HUVEC cells were plated on the Matrigel-coated underside of the Transwells. Transwells were then flipped onto a 24-well plate containing 200 μl of α-MEM (minimum essential medium) supplemented with 10% fetal bovine serum (FBS)+3000 U of CSF-1 and incubated until the endothelium formed impermeable monolayers. […] Once impermeable by these criteria, the Transwell assay was used for iTEM studies. All the assays were run in the presence of BAC1.2F5 murine macrophage cell line and MDA-MB 231-GFP human breast cancer cells. Transwells were imaged using a Leica SP5 confocal microscope using a 60×1.4 numerical aperture objective and processed using ImageJ [National Institutes of Health (NIH)] and IMAMS programs. Quantitation was performed by counting the number of tumor cells that had crossed the endothelium within the same field of view (60×, 10 random fields).
# U87-MG xenograft glioma = experiment: Orthotopic U87-MG xenograft efficacy model (BLI); format: in vivo, mice; settings: after two weeks of treatment; bevacizumab 5 mg/kg IP every three days; Compound 1 10 mg/kg BID
# Experimental: Protocol for in vivo xenograft efficacy study. […] Treatments began on Day 31.
# The tumor cells were injected intracerebroventricularly (ICV) and tumor growth was monitored in vivo by quantitation of luciferase-mediated BLI.
# GSC17 glioblastoma cells = experiment: GSC17 glioma stem cell patient-derived xenograft model (tumor volume, immunohistochemistry); format: in vivo, mice
# Experimental: For the in vivo experiments, 4- to 6-week-old female nude mice that were strictly inbred at The University of Texas MD Anderson Cancer Center and maintained in the MD Anderson Veterinary in accordance with institutional guidelines were used. For the in vivo experiments, GSC11 (5×10^5) or GSC17 (5×10^4) glioblastoma cells were implanted intracranially into nude mice. […] Control mice for these cohorts were treated with phosphate-buffered saline by i.p. injection and/or with 0.4% HPMC vehicle by oral gavage. One cohort of 10 mice per group were treated continuously and followed for survival. A separate cohort of 9 mice per group were treated continuously until the designated time point, and the tumors from these mice were extracted at 3, 4, 5 weeks in GSC11 xenograft mice model and at 3.5, 4.5, 5.5 weeks in GSC17 xenograft mice model after the start of treatment.
# When the mice treated for the designated time period developed signs and symptoms of advanced tumors, they were euthanized, and their brains were removed, fixed in 4% formaldehyde for 24 hours, and embedded in paraffin. The tissues were then sectioned serially (4 μm) and stained with hematoxylin and eosin (Sigma-Aldrich). Tumor formation and phenotype were determined by histologic analysis of the hematoxylin- and eosin-stained sections. The tumor volume, greatest longitudinal diameter (length), and greatest transverse diameter (width) were measured using an external caliper and Adobe Illustrator software. The tumor volumes were calculated by the following formula: volume=½(length×width^2).
# For immunohistochemical analyses, the tissue sections were deparaffinized and subjected to graded rehydration. After blocking the tissue in 5% horse and goat serum and antigen retrieval solution (citrate buffer, pH 6.0), we incubated the tissue sections overnight at 4° C. with primary antibodies against Factor VIII (1:500; A0082, Dako) to assess microvessel formation, vimentin (1:100; M0725, Dako) to assess mesenchymal marker expression, F4/80 (1:50; 123102, BioLegend) to assess monocyte infiltration, nestin (1:300; Ab6142, Abcam) to assess glioma stem cell marker expression, HGF (1:200; LS-B4657, LSBio), and TIE2 (1:50; Santa Cruz Biotechnology) to assess TIE2-expressing monocyte infiltration. Texas red fluorescein isothiocyanate-conjugated secondary antibodies or anti-rat immunoglobulin G antibodies (Invitrogen) were used for 1 hour at room temperature.
# All statistical analyses were conducted with the GraphPad 6 (InStat) software for Windows 7. Survival analysis was conducted using the Kaplan-Meier method, and differences in survival between treatment groups were assessed using the log-rank test. All other comparisons were performed using an unpaired two-tailed Student t-test. Summary statistics for continuous data are expressed as the mean±standard error of the mean. P values less than 0.05 were considered statistically significant. The nestin staining was assessed using the Image-Pro Plus system version 7.0 (Media Cybernetics) in ×10 fields of at least three tumor samples per group with three to four different sections per tumor sample.
# PyMT mammary tumor = experiment: PyMT syngeneic breast cancer model; format: in vivo, mice
# Experimental: Female FVB/NJ mice were implanted in the 4th mammary fat pad with one million cells that had been dissociated from tumor fragments from MMTV-PyMT donor mice. […] Mice (n=10/group) were dosed for three weeks, then, primary tumor and lungs were collected and fixed. Lung sections were stained with H&E at Premier Laboratory. Lung metastases (≧10 cells) were counted manually via microscopy. Data were analyzed via one-way analysis of variance (ANOVA), with post-hoc analysis by the method of Holm-Sidak. For analysis of TIE2-positive macrophages, tumor sections were stained with TIE2 and CD31 antibodies at Premier Laboratory. The density of TIE2-positive cells at the stroma/tumor boundary in each tumor was scored using 0=no staining, 1=low, 2=medium, and 3=high.
# SKOV-3 = SKOV-3 ovarian xenograft model; settings: in vivo
# Excerpt for A375: Mice were implanted subcutaneously and treatment began on Day 8. Treatments ended on Day 36 after four weeks of treatment.
smiles,measurement,setting,value
"O=C(Nc1cc(Oc2cc(F)c(NC(=O)C3(C(=O)Nc4ccc(F)cc4)CC3)cc2F)ccn1)C1CC1 [Compound 1, N-(4-(2-(cyclopropanecarboxamido)pyridin-4-yloxy)-2,5-difluorophenyl)-N′-(4-fluorophenyl)cyclopropane-1,1-dicarboxamide]",IC50,[1],< 10 nM
same,Decrease in BLI signal compared to vehicle,U87-MG xenograft glioma,90%
same,Tumor volume at 3.5 weeks,"GSC17 glioblastoma cells; GSC17, bevacizumab 10 mg/kg i.p. twice per week, Compound 1 10 mg/kg oral twice daily",0.1±0.2 mm^3
same,Tumor volume at 4.5 weeks,"GSC17 glioblastoma cells; GSC17, same dosing",9.8±3.9 mm^3
same,Tumor volume at 5.5 weeks,"GSC17 glioblastoma cells; GSC17, same dosing",10.1±1.4 mm^3
same,Factor VIII-positive area,GSC17 glioblastoma cells; GSC17 xenograft mouse model,1.0±0.2%
same,Nestin-positive area,GSC17 glioblastoma cells; GSC17 xenograft mouse model,2.9±1.0%
same,Mesenchymal tumor marker vimentin / EMT (immunohistochemistry),GSC17 glioblastoma cells; GSC-17 glioma model,decreases levels of vimentin
same,Tumor infiltration of TIE2-positive/F4/80-positive cells,GSC17 glioblastoma cells; GSC-17 glioma xenograft model,lower
same,Tumor growth inhibition (TGI),"PyMT mammary tumor; after dosing for three weeks, paclitaxel 10 mg/kg i.v. every 5 days, Compound 1 15 mg/kg twice daily",69%
same,Reduction of TIE2 score (stromal density of TIE2+ cells),PyMT mammary tumor; same dosing,50%
same,Reduction of lung metastases compared to controls,PyMT mammary tumor; same dosing,74%
same,SKOV-3 tumor growth,SKOV-3,only weakly inhibited
same,Day 22 % T/C,"A375; 10 mg/kg, orally, BID",47%
same,Median tumor growth delay,"A375; 10 mg/kg, orally, BID",> 12.4 days
same,Day 22 % T/C,"A375; 20 mg/kg, orally, QD",33%
same,Tumor growth delay,"A375; 20 mg/kg, orally, QD",15.7 days
same,CD31+ microvessel area in tumor sections at the end of study,"A375; mouse, in vivo",significant decreases
